According to patent US10877024B2, “Methods of determining interferon having direct inhibitory effects on tumors and uses thereof” (SUPERLAB FAR EAST LIMITED, priority 2015, dated 2020):

Experiments:
[1] = test system: procaspase-3, cleaved caspase-3, procaspase-8, cleaved caspase-8, PARP; assay: Apoptosis-related molecular markers by Western Blot; format: cell-based, human; settings: A549 and SW620 cells, 24 hr or 48 hr; interferons 10 mcg/ml
Source text: Thereafter, apoptosis-related molecular markers were monitored by Western Blot. The primary antibodies used were mouse monoclonal anti-beta-tubulin (1:2000, Cat #: CW0098A) and mouse monoclonal anti-GAPDH (1:2000, Cat #: CW0100A) (Kangwei Biotechnology, China); mouse monoclonal anti-PARP (1:1000, Cat #: sc-2007, Santa Cruz Biotechnology, Inc.); rabbit monoclonal anti-procaspase 3 (1:1000, Cat #: 9665), and rabbit polyclonal anti-cleaved caspase 3 (1:1000, Cat #: 9661) (Cell Signaling Technology, USA); goat polyclonal anti-procaspase 8 (1:1000, Cat #: sc-6136, Santa Cruz Biotechnology, Inc); rabbit monoclonal anti-cleaved caspase 8 (1:1000, Cat #: 9496) (Cell Signaling Technology, USA).

[2] = test system: human lung cancer SPC-A4 xenografts; settings: 5 mg/kg i.v. days 1 and 6
Procedure: Under sterile conditions, well-grown tumors were cut into 1.5 mm^3 fragments and one such fragment was injected by trocar needle into the right flank of each study animal. […] Individual tumor size (length and width) was measured twice per week with microcalipers. Tumor volume (V) was calculated using the formula: V=(length×width^2)/2. Individual relative tumor volume (RTV) was calculated using the formula: RTV=Vt/V0, where Vt is the tumor volume on the day of measurement and V0 is the tumor volume on the day of first treatment. Therapeutic effect of the test article or control article was expressed in terms of T/C (%), using the formula: T/C (%)=(mean RTV of the treated group/mean RTV of the control group)×100%; and in terms of % Inhibition, using the formula: % Inhibition=100%−T/C %.
The 1.5 mm^3 fragments were then used for s.c. implantation into the test animals. The body weight of the animals averaged 22±2 g at dose initiation.

[3] = test system: human hepatoma SMMC-7721 xenografts; assay: rSIFN-co on human hepatoma SMMC-7721 xenografts in nude mice; settings: 5 mg/kg i.v.
Procedure: The test article was used without dilution. It was stored at 4° C. until thawed for injection.
The animals used were 4-6 weeks old male BALB/cA nu/nu mice, weighing about 23±2 g, obtained from the Shanghai Institute of Materia Medica (Shanghai, P.R. China). […] Animals were housed 6 to a cage. They were ear-marked with ear hole punch identification. The room temperature was maintained at 25° C.±+1° C. Lighting was set at 12 hr on and 12 hr off. Food was provided ad libitum. City tap water, filtered with a 5 micrometer (μm) filter, was provided to the animals ad libitum via water bottles.
The test article was administered in a volume of 0.05 ml-0.15 ml per mouse per treatment, depending on the group to which the animal was assigned. […] Normal saline was injected in a volume of 0.15 ml per mouse, which was used as vehicle control.
Animals were assigned to treatment groups randomly. Initially, all animals were placed in one large animal cage. For assignment to the study, they were later separately housed, with 6 animals per cage per treatment group. Groups 1 and 2 are Control groups in which the animals were each administered the vehicle every other day after the first treatment. […] Tumor growth was monitored by measuring the length and width of each tumor twice a week during the course of the study. Each animal was also weighed twice a week during the course of the study.
Before commencement of this study, the xenografts were passaged twice in nude mice. Under sterile conditions, well-grown tumors were cut into 1.5 mm^3 fragments and one such fragment was injected by trocar needle into the right flank of each study animal. […] Individual tumor size (length and width) was measured twice per week with microcalipers. Tumor volume (V) was calculated using the formula: V=(length×width^2)/2. Individual relative tumor volume (RTV) was calculated using the formula: RTV=Vt/V0, where Vt is the tumor volume on the day of measurement and V0 is the tumor volume on the day of first treatment. Therapeutic effect of the test article or control article was expressed in terms of T/C (%), using the formula: T/C (%)=(mean RTV of the treated group/mean RTV of the control group)×100%; and in terms of % Inhibition, using the formula: % Inhibition=100%−T/C %.

[4] = test system: Human Cervical Cancer Hela Xenografts; assay: rSIFN-co on human cervical cancer Hela xenografts in nude mice; format: in vivo; settings: 5 mg/kg i.v. days 1 and 13
Procedure: Then 1.5 mm^3 fragments were prepared for s.c. implantation into the animals.

[5] = test system: Human Colon Cancer HT-29 Xenografts; assay: rSIFN-co on human colon cancer HT-29 xenografts in nude mice; format: in vivo; settings: 5 mg/kg i.v. days 1 and 10

SMILES: O=c1[nH]cc(F)c(=O)[nH]1 [5FU, reference compound]
- level of cleaved caspase-3 and cleaved caspase-8 [1]: enhanced level
- level of procaspase-3, procaspase-8 and PARP [1]: significant reduction

SMILES: CO[C@@]12[C@H](COC(N)=O)C3=C(C(=O)C(C)=C(N)C3=O)N1C[C@@H]1N[C@@H]12 [MMC, Mitomycin C, reference compound]
- TV(mm^3, mean ± SD) (D 0) ([2]; day 0): 166 ± 42 mm^3
- % Inhibition ([2]; day 21): 72.87%
- RTV (mean ± SD) ([2]; day 21): 11.54 ± 4.37
- T/C (%) ([2]; day 21): 27.13%
- TV(mm^3, mean ± SD) (D 21) ([2]; day 21): 1831 ± 540 mm^3
- TV(mm^3, mean ± SD) (D 0) ([3]; day 0): 125 ± 35 mm^3
- mean body weight ([3]; day 0): 23.9 gram
- % Inhibition ([3]; day 21): 47.18%
- TV(mm^3, mean ± SD) (D 21) ([3]; day 21): 621 ± 247 mm^3
- mean body weight ([3]; day 21): 25.4 gram
- TV(mm^3, mean ± SD) (D 0) ([4]; day 0): 130 ± 28 mm^3
- % Inhibition ([4]; day 28): 60.08%
- T/C (%) ([4]; day 28): 39.92%
- TV(mm^3, mean ± SD) (D 28) ([4]; day 28): 676 ± 358 mm^3
- TV(mm^3, mean ± SD) (D 0) ([5]; day 0): 132 ± 22 mm^3
- % Inhibition ([5]; day 28): 62.9%
- T/C (%) ([5]; day 28): 37.10%
- TV(mm^3, mean ± SD) (D 28) ([5]; day 28): 395 ± 95 mm^3
